Among the data in ChEMBL document CHEMBL3507680, “University of Dundee, Gates Library screen for HepG2 cell viability” are cytotoxicity values, retold here.

The structures appear in SMILES notation.

A short description of this data set: Human HepG2 cell viability assay in 384 well format. The data set is classed as toxicity, cell-based. The arrangement: dose 125 nL, time 70.5 hour; concentration not given beside the values. To be noted: HepG2 cells, read-out: Inhibition.
As for `COc1cccc(CC(=O)N2CCc3nc(C(N)=O)sc3CC2)c1`, the cytotoxicity at 70.5 h was -8.31%. The same measure for `N#Cc1cccc(N2CCCC3(CN(C(=O)c4ccc[nH]4)CCO3)C2)c1` (configuration not stated): -5.89%.

Consider `CCc1cnc(N2C[C@H]3CN(Cc4ccc(OC)cc4)C(=O)[C@H]3C2)nc1`, for which the cytotoxicity at 70.5 h was -2.79%. As for `N#Cc1cccc(N2CCOCC3(CCCN(C(=O)NC4CC4)C3)C2)c1` (configuration not stated), the figure is -6.43%; as for `COCCN1C(=O)C2(CCC(C(=O)Nc3ccccn3)CC2)N=C1C` (configuration not stated), -11.2%; as for `Cn1ccnc1C(=O)NCc1cc(=O)n2c(n1)CN(CC1CC1)CCC2`, -4.68%.

For the molecule `CN1C(=O)CC2(CCN(Cc3cnn(C)c3)CC2)c2ccccc21`, the cytotoxicity at 70.5 h was -2.77%. Take `CNC(=O)[C@@H]1COC[C@H]2CN(C(=O)c3ccc(OC)cc3)C[C@H]21`: the cytotoxicity at 70.5 h is -2.56%. In the case of `Cn1cc(CN2C[C@@H](N3CCCC3=O)[C@H]3OCCC[C@H]32)cn1`, the cytotoxicity at 70.5 h was -3.55%. Take `CNC(=O)[C@@H]1COC[C@H]2CN(C(=O)c3cccc(OC)c3)C[C@H]21`: the cytotoxicity at 70.5 h was determined as 9.55%. As for `Cn1cc(CN2CCC3(CC2)CC(=O)Nc2ccccc23)cn1`, the figure is -1.78%; as for `c1cnc(N2CC[C@@H]3[C@@H]2CCN3Cc2cccs2)nc1`, -4.98%; as for `Cc1cccc(CN2C[C@@H]3OCCN(C)[C@@H]3C2)n1`, -11.9%. The same measure for `CCS(=O)(=O)N1CCc2ncnc(OC)c2CC1`: -5.9%; for `COc1ncccc1CN1C[C@@H]2COC[C@]2(CNC(=O)c2ccno2)C1`: -15.5%. As for `c1cncc(N2CCOC3(CCCN(c4nncs4)C3)C2)c1` (configuration not stated), the figure is -7.3%; as for `CS(=O)(=O)NC[C@]12COC[C@H]1CN(C(=O)CCc1ccccc1)C2`, -2.39%. For `CC(C)N(C)[C@@H]1CCN(C(=O)[C@H]2CCCO2)[C@H]1Cc1cnn(C)c1`, the cytotoxicity at 70.5 h is -4.8%. Consider `Cn1cc(C[C@H]2[C@@H](O)CCN2C(=O)C2CCC2)cn1`, for which the cytotoxicity at 70.5 h was -1.34%. With `O=C1CCCN1CC1CN(C(=O)N2CCOCC2)Cc2nccn2C1` (configuration not stated), the cytotoxicity at 70.5 h is -2.04%. Consider `COCC(=O)N1CCC2(CC1)CC(c1cnn(C)c1)C(=O)N2` (configuration not stated), for which the cytotoxicity at 70.5 h is -6.84%. As for `Cc1ccccc1C(=O)N1CC(C(=O)NCC2CC2)C2(CCOCC2)C1` (configuration not stated), the figure is -1.13%; as for `Cc1nnc(N2CCCC3(CN(c4cccc(F)c4)CCO3)C2)o1` (configuration not stated), 1.49%.

On to `Cc1cccc(CN2CCC3(CCCN(C(=O)CN(C)C)C3)C2=O)n1` (configuration not stated), for which the cytotoxicity at 70.5 h stood at 2.41%.

Turning to `CN(Cc1cn2c(n1)CN(C(N)=O)CC2)Cc1ccco1`, the cytotoxicity at 70.5 h was -1.71%.

For `O=C(NCC1CC1)C1CN(C(=O)c2ccnnc2)CC12CCOCC2` (configuration not stated), the cytotoxicity at 70.5 h was -2.63%.

Turning to `Cc1nnc(N2C[C@H](C(=O)NCc3ccco3)[C@@H]3CCO[C@@H]3C2)s1`, the cytotoxicity at 70.5 h is -1.66%. Take `CN1CC(=O)N(c2ccsc2)CC12CCN(Cc1nccn1C)C2` (configuration not stated): the cytotoxicity at 70.5 h was -0.505%. The same measure for `Cc1cnc(N2CCOC3(CCCN(C)C3)C2)nc1` (configuration not stated): -10.1%; for `COc1cccc(CN2CCc3nc(C(N)=O)sc3CC2)c1`: -7.05%. As to `O=S(=O)(C1CC1)N1CCC2(CN(c3ccccn3)C2)C1`, the cytotoxicity at 70.5 h was -7.95%. In the case of `CCS(=O)(=O)N1CCC2(CN(c3cccc(C)n3)C2)C1`, the cytotoxicity at 70.5 h was -4.08%. Take `CC(C)C(=O)N1CCC2(CCN2CC2CC2)C1` (configuration not stated): the cytotoxicity at 70.5 h was -4.62%.

`CC(C)C(=O)N1CCC2(CN(CC3CCCC3)C2)C1`: the cytotoxicity at 70.5 h is -5.09%. The same measure for `Cc1ccc(CN2C[C@@H]3CN(c4ncc(F)cn4)C[C@@H]3C2)cc1`: -1.01%; for `c1ccc(CN2Cc3[nH]nc(COCC4CC4)c3C2)nc1`: -4.63%.

In the case of `CN1CCc2c(c(COc3cncnc3)nn2CC2CC2)C1`, the cytotoxicity at 70.5 h amounted to 5.89%. The same measure for `CCc1cnc(N2CCC3(CC(=O)N(Cc4csc(C)n4)C3)C2)nc1` (configuration not stated): -12%; for `CCCC(=O)N1CCOC2(COCCN(CC(=O)NC)C2)C1` (configuration not stated): -10.5%; for `CC(C)CN1CC[C@H]2OCC[C@@H](C(=O)N3CCCO3)[C@@H]2C1`: -18.2%.

In the case of `CNC(=O)c1cc2c(nc1NCC1CC1)CCN(S(C)(=O)=O)CC2`, the cytotoxicity at 70.5 h was -23.3%. Take `Cn1cc(CN2CCn3cc(Cn4cccn4)nc3C2)cn1`: the cytotoxicity at 70.5 h was found to be 44.1%. Take `O=C([C@@H]1CCO[C@@H]2CCN(CC3CCOCC3)C[C@H]21)N1CCCO1`: the cytotoxicity at 70.5 h came to 46.7%.

For `Cc1ccc(CN2CC[C@H]3OCC[C@@H](C(=O)N4CCCCO4)[C@@H]3C2)o1`, the cytotoxicity at 70.5 h was found to be 47.1%. Take `COCC(=O)N1CCCC2(CCN(Cc3cccc(C)n3)C2=O)C1` (configuration not stated): the cytotoxicity at 70.5 h was -0.526%. On to `O=C1CCCN1CC1CN(CC2CCOCC2)Cc2nccn2C1` (configuration not stated), for which the cytotoxicity at 70.5 h is -2.55%. Consider `c1cnc(N2CCOCC3(CN(Cc4nccs4)CCO3)C2)nc1` (configuration not stated), for which the cytotoxicity at 70.5 h is -2.26%. For the molecule `O=C(c1ccc(F)cc1)N1C[C@H]2CCC[C@@]2(COCc2ccncc2)C1`, the cytotoxicity at 70.5 h is -0.425%. The same measure for `Cc1ccsc1C(=O)N1Cc2ncn(C)c2C(COCC2CC2)C1` (configuration not stated): 5.9%. `O=C(Cc1ccccn1)NCC1OCCc2cn(CC3CC3)nc21` (configuration not stated): the cytotoxicity at 70.5 h came out at 11.2%. The same measure for `O=C(NC1CC1)[C@H]1C[C@H]2OCC[C@H]2N(Cc2cccc3ccccc23)C1`: -0.842%; for `Cc1nc(Cn2c3c(ccc2=O)CCN(CC2CCC2)CC3)cs1`: -9.15%. The same measure for `COCCN1CCc2ccc(=O)n(Cc3csc(C)n3)c2CC1`: -6.35%; for `CCn1cc2c(n1)C(COC)CN(c1ccc(C)nn1)C2` (configuration not stated): -7.13%. As for `c1cnc(N2CCC3(CC2)CC(NCC2CC2)c2ccccc23)nc1` (configuration not stated), the figure is 11.4%; as for `Fc1cnc(N2C[C@H]3CN(Cc4cccc(F)c4)C[C@H]3C2)nc1`, -13.6%; as for `c1ccc(CNCC2Cn3nnc(-c4ccncc4)c3CO2)nc1` (configuration not stated), -4.04%. As to `c1csc(CN2Cc3[nH]nc(COCC4CC4)c3C2)c1`, the cytotoxicity at 70.5 h was -8.6%. As for `Cc1nc(CN2CC[C@H]3[C@H]2CCN3c2nncs2)cs1`, the figure is -3.7%.

With `CC(C)N1CCOCC2(CN(Cc3cccs3)CCO2)C1` (configuration not stated), the cytotoxicity at 70.5 h is -0.496%. The same measure for `c1cn2c(n1)CN(C1CCOCC1)CC(CN1CCCC1)C2` (configuration not stated): -2.92%; for `Cn1cc(CN2CCO[C@@H]3CN(C4CCCC4)C[C@@H]3C2)cn1`: 1.26%; for `CNC(=O)[C@H]1C[C@@H]2CN(Cc3cccnc3OC)C[C@@H]2N1C(C)C`: -7.89%. As for `CN(C)CCN1CCCC12CCCN(Cc1ccco1)C2` (configuration not stated), the figure is 7.41%; as for `COc1ncccc1CN1CC[C@]2(C[C@@H](OCc3ccccn3)CO2)C1`, -13.8%. For `c1cc(CN2CCOCC3(C2)CN(Cc2nccs2)CCO3)ccn1` (configuration not stated), the cytotoxicity at 70.5 h is 17.5%.

As to `CN(C)CCN1CCOCC2(C1)CN(Cc1nccs1)CCO2` (configuration not stated), the cytotoxicity at 70.5 h stood at 16.3%.
